Measured values as given in US20120015925A1, “NOVEL BENZOTHIAZEPINE AND BENZOTHIEPINE COMPOUNDS” (ASAHI KASEI PHARMA CORPORATION, priority 2004, published 2012).

Key:
rats dosed cholic acid = experiment: Lowering effect on bile acid concentrations in portal vein blood in rats dosed cholic acid; assay type: in vivo, rat
Summary of the method: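 Fasted male SD (IGS) rats aged 7–9 weeks received oral cholic acid (200 mg/kg) plus test compound in water with 0.05% or 1% surfactant (n=6). Portal vein serum total bile acid measured 2 h post-dose; reduction rate (%) calculated against cholic acid-only controls set as 100%.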

human IBAT = molecular target: T1, human IBAT (Homo sapiens, UniProt Q12908); experiment: In vitro assay using Cos 7 cells, transiently expressed human IBAT; assay type: cell-based; conditions: [3H]-taurocholate 8 μM uptake, 37° C., 60 minutes
T1 sequence (Q12908 1-348): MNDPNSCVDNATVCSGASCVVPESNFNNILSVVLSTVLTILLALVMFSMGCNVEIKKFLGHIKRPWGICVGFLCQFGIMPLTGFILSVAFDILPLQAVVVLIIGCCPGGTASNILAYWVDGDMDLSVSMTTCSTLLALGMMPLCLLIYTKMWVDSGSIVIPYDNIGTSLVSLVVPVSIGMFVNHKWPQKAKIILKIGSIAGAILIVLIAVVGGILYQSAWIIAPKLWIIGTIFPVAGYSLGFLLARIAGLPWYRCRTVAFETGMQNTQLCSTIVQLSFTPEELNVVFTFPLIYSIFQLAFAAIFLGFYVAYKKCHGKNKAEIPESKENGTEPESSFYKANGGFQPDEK
Summary of the method: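 Cos 7 cells transfected with human or rat IBAT cDNA were assayed one day later in Hanks buffer with 25 mM glucose and 10 mM HEPES (pH 7.4) containing compound. [^3H]-taurocholate (8 μM final) uptake ran 60 min at 37° C. Cells were washed with 1 mM taurocholate, lysed in NaOH, and counted by liquid scintillation.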

male beagle dogs = experiment: Effect of combination with pravastatin on plasma total cholesterol levels in dogs; assay type: in vivo, dog; conditions: for plasma total cholesterol BEFORE TREATMENT: Example compound 3 mg/kg alone group, baseline; for plasma total cholesterol BEFORE TREATMENT / plasma total cholesterol AFTER TREATMENT: N=4, mean±standard error; for plasma total cholesterol AFTER TREATMENT / plasma total cholesterol BEFORE TREATMENT − AFTER TREATMENT / reduction rate with respect to the data before administration (number in parenthesis): Example compound 3 mg/kg alone, oral once daily for 7 days; for plasma total cholesterol BEFORE TREATMENT − AFTER TREATMENT / reduction rate with respect to the data before administration (number in parenthesis): vehicle 1
From the text: The effect of the combination of the compounds described in Example with pravastatin (HMG-CoA reductase inhibitor) on plasma cholesterol levels in dogs was examined.
To male beagle dogs (supplied from Kitayama Labes, body weight 9 to 13 kg), usual solid feedstuff (DS-A: Oriental Yeast Co., Ltd.) was given once daily at 13:00 to 14:00. The light was turned on from 7:00 to 19:00 as a light period, and the remaining was defined as a dark period. Water was given ad libitum. In the morning in the week prior to the administration, the blood was collected with heparin from forearm cephalic vein, and plasma was collected by centrifugation. The total cholesterol level of this plasma was measured using the commercially available cholesterol level measurement kit by the enzymatic method (Cholesterol-E Test Wako). The dogs were grouped so that the total cholesterol levels were almost equal. Sodium pravastatin (1 mg/kg, Sankyo) alone or 3 mg/kg of the compound described in each of Examples alone or the combination thereof was orally administered once daily just before feeding for 7 days. Pravastatin was dissolved in distilled water, and the compound described in Example was suspended in 0.5% methylcellulose solution for administration. On the day after the final administration, the blood was collected from the forearm cephalic vein under starving, to which plasma was obtained. The total cholesterol level therein was measured by the same way. As a result, the total cholesterol level in the plasma was reduced by 7 mg/dL (6%) by orally administering 1 mg/kg/day of pravastatin for 7 days. The total cholesterol level in the plasma was reduced by […] (3 to 8%) by orally administering 3 mg/kg/day of the compound described in each of Examples for 7 days. When pravastatin and the compound described in each of Examples were co-administered at this dosages, the total cholesterol in the plasma was reduced by 14 to 24 mg/dL (12 to 20%). The reduction rate of the total cholesterol level was larger in the co-administration with the compound described in Example than in the administration of pravastatin alone, and the augmented effect by the co-administration was observed.

[1] = molecular target: T2, human IBAT transporter in which alanine at position 171 has been substituted with serine (Homo sapiens, UniProt Q12908); experiment: In vitro assay using Cos 7 cells, human IBAT with alanine 171 substituted with serine; assay type: cell-based; conditions: 10 nM test compound
T2 sequence (Q12908 1-348): T1 sequence (Q12908 1-348)

rat IBAT = molecular target: T3, rat IBAT (Rattus norvegicus, UniProt Q62633); experiment: In vitro assay using Cos 7 cells, transiently expressed rat IBAT; assay type: cell-based; conditions: [3H]-taurocholate 8 μM uptake, 37° C., 60 minutes
T3 sequence (Q62633 1-348): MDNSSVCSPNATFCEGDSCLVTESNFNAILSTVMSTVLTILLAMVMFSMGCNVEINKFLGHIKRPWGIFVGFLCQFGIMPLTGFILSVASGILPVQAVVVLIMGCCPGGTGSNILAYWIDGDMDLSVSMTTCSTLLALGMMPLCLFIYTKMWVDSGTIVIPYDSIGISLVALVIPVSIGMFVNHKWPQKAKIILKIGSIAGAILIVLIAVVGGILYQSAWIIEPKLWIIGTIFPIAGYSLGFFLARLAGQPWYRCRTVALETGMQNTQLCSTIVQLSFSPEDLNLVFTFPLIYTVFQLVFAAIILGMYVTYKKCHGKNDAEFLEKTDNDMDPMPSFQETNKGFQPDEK
Experimental: In the present Test Example, an in vitro assay of compounds using Cos 7 cells as to inhibitory activity on transiently expressed human IBAT or rat IBAT transporter was performed according to the method described in Am. J. Physiol., 274, G157-169.
That is, […] cells/well of Cos 7 cells were seeded in a 24-well plate, and after one day, the cells were transfected with 0.3 μg/well of cDNA of human IBAT or rat IBAT using FuGENE6 (supplied from Roche). After culturing for one day after the transfection, the cells were washed once with the assay buffer, i.e., Hanks buffer containing 25 mM glucose and 10 mM HEPES (pH 7.4). The assay buffer was then replaced with the assay buffer containing the test compound. [^3H]-Taurocholate at a final concentration of 8 μM was added thereto and incubated at 37° C. for 60 minutes so that [^3H]-taurocholate was taken into Cos 7 cells by the action of human IBAT or rat IBAT. The cells were washed twice with the assay buffer containing 1 mM taurocholate, and subsequently lysed with 0.2 M NaOH to stop the reaction. The cell lysate was added to 4 mL of liquid scintillation cocktail, which was then thoroughly vortexed. Then the radioactivity was measured using the liquid scintillation counter.

[2] = 0.1 mg/kg oral with cholic acid 200 mg/kg, portal vein serum total bile acid 2 hours after, control = 100%, surfactant HCO-60 (##)

| SMILES | IC50 (human IBAT) | BILE ACID REDUCTION RATE (%) IN RAT MODEL WITH CHOLIC ACID LOADING (rats dosed cholic acid; [2]) | plasma total cholesterol BEFORE TREATMENT (male beagle dogs) | plasma total cholesterol AFTER TREATMENT (male beagle dogs) | plasma total cholesterol BEFORE TREATMENT − AFTER TREATMENT (male beagle dogs) | reduction rate with respect to the data before administration (number in parenthesis) (male beagle dogs) | further results |
| --- | --- | --- | --- | --- | --- | --- | --- |
| CCCCC1(CCCC)CS(=O)(=O)c2ccc(N(C)C)cc2C(c2cccc(NC(=S)Nc3ccc(C[N+]45CCC(c6ccccc6)(CC4)CC5)cc3)c2)N1.[Br-] (racemic) [EXAMPLE 3696] | 39 nM | 13% | 119 ± 2 mg/dL | 115 ± 3 mg/dL | 3 (3) mg/dL | 3 (3) | – |
| CCCCC1(CCCC)CS(=O)(=O)c2ccc(N(C)C)cc2C(c2cccc(NC(=S)CCCCC[N+]34CCC(CC3)CC4)c2)N1.[Br-] (stereo not shown) [EXAMPLE 1, 1-{5-[3-(3,3-dibutyl-7-dimethylamino-1,1-dioxo-2,3,4,5-tetrahydro-1,4-benzothiazepine-5-yl)phenylthiocarbamoyl]pentyl}-1-azoniabicyclo[2.2.2]octane bromide] | – | – | – | – | – | – | Cos 7 WITH HUMAN IBAT IN WHICH 171ST ALANINE IS SUBSTITUTED WITH SERINE INHIBITION (%) AT TEST COMPOUND CONCENTRATION OF 10 nM [1]: 53%; BILE ACID REDUCTION RATE (%) IN RAT MODEL WITH CHOLIC ACID LOADING (rats dosed cholic acid; 0.1 mg/kg oral, surfactant Tween 20 0.05%, cholic acid 200 mg/kg, portal vein blood 2 hours after administration): 51% |
| CCCCC1(CCCC)CS(=O)(=O)c2ccc(N(C)C)cc2C(c2cccc(NC(=S)Nc3ccc(C[n+]4ccc(C(C)(C)C)cc4)cc3)c2)N1.[Br-] (stereo not shown) [EXAMPLE 3713] | 37 nM | 32% | 117 ± 4 mg/dL | 113 ± 3 mg/dL | 4 mg/dL | 3 | – |
| CCCCC1(CCCC)CS(=O)(=O)c2ccc(N(C)C)cc2C(c2cccc(NC(=S)Nc3ccc(C[n+]4cccc(CCCO)c4)cc3)c2)N1.[Br-] (stereo not shown) [EXAMPLE 3747] | 45 nM | 40% | – | – | – | – | – |
| CCCCC1(CCCC)CS(=O)(=O)c2ccc(N(C)C)cc2C(c2cccc(NC(=S)Nc3ccc(C[n+]4cccc(CCC(=O)OC)c4)cc3)c2)N1.[Br-] (stereo not shown) [EXAMPLE 3752] | 41 nM | 42% | – | – | – | – | – |

Now from value to compound, other results behind:

| IC50 (human IBAT) | SMILES | BILE ACID REDUCTION RATE (%) IN RAT MODEL WITH CHOLIC ACID LOADING (rats dosed cholic acid; [2]) | plasma total cholesterol BEFORE TREATMENT (male beagle dogs) | plasma total cholesterol AFTER TREATMENT (male beagle dogs) | plasma total cholesterol BEFORE TREATMENT − AFTER TREATMENT (male beagle dogs) | reduction rate with respect to the data before administration (number in parenthesis) (male beagle dogs) | further results |
| --- | --- | --- | --- | --- | --- | --- | --- |
| 37 nM | C#CC[N+](C)(Cc1ccccc1)Cc1ccc(NC(=S)Nc2cccc(C3NC(CCCC)(CCCC)CS(=O)(=O)c4ccc(N(C)C)cc43)c2)cc1.[Br-] (racemic) [EXAMPLE 3448] | 25% | – | – | – | – | – |
| 37 nM | CCCCC1(CCCC)CS(=O)(=O)c2ccc(N(C)C)cc2C(c2cccc(NC(=S)Nc3ccc(C[N+](C)(C)Cc4ccccc4)cc3)c2)N1.[Br-] (stereo not shown) [EXAMPLE 3440] | – | – | – | – | – | IC50 (rat IBAT): 10 nM; BILE ACID REDUCTION RATE (%) IN RAT MODEL WITH CHOLIC ACID LOADING (rats dosed cholic acid; 0.1 mg/kg oral, surfactant HCO-60 0.1%, cholic acid 200 mg/kg, portal vein blood 2 hours after administration): 26% |
| 39 nM | CCCCC1(CCCC)CS(=O)(=O)c2ccc(N(C)C)cc2C(c2cccc(NC(=S)Nc3ccc(C[N+]4(Cc5ccccc5)CCC(O)CC4)cc3)c2)N1.[Br-] (stereo not shown) [EXAMPLE 3605] | 24% | – | – | – | – | – |
| 32 nM | CCCCC1(CCCC)CS(=O)(=O)c2ccc(N(C)C)cc2C(c2cccc(NC(=S)Nc3ccc(C[n+]4ccccc4CCC)cc3)c2)N1.[Br-] (stereo not shown) [EXAMPLE 5408] | 35% | 128 ± 4 mg/dL | 122 ± 4 mg/dL | 6 mg/dL | 5 | – |
